Measured values from patent US6277871A, “Inhibitors of protein isoprenyl transferases” (Abbott Laboratories, priority 1999, dated 2001).
Like-named read-outs stand apart in the source and are kept apart here.

Molecular target: T1, Rat brain protein farnesyltransferase (Rattus norvegicus, UniProt Q02293+Q04631)
T1 construct: Rat brain protein farnesyltransferase activity is measured; from tissue; host or cells: rat brain
Experiment: in vitro inhibition of protein farnesyltransferase (Amersham scintillation proximity assay, biotin-K Ras B fragment substrate)
Type: biochemical
Settings: read-out: % inhibition at 1 × 10^-7 M
Procedure: In addition, in vitro inhibition of protein farnesyltransferase may be measured by the following procedure. […] The enzyme is purified according to Reiss, Y., et al., Cell, 62: 81-88 (1990), hereby incorporated by reference, utilizing steps one through three. […]
The % inhibition of protein farnesyltransferase was determined for representative compounds of the invention.

[1] = 1 × 10^-7 M, protein farnesyltransferase, compared to uninhibited control

T1 sequence (Q02293 whole entry, one chain of several): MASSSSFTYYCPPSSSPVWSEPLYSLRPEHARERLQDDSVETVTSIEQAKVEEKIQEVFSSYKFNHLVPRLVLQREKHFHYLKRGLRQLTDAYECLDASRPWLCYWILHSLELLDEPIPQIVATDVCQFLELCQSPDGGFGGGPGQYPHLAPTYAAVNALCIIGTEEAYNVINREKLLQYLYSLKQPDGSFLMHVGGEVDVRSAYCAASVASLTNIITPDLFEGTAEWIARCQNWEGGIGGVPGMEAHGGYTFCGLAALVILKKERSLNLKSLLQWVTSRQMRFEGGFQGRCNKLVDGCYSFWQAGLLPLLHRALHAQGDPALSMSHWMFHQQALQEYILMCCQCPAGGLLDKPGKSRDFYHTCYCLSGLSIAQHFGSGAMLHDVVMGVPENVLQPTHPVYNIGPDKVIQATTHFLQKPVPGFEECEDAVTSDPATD

Row | Compound | inhibition at 0.1 µM | inhibition at 0.1 µM [1]
1 | CSCC[C@H](NC(=O)C1=C(c2ccccc2C)CN(S(=O)(=O)N(Cc2ccccc2)Cc2cncs2)CC1)C(=O)O [Example 6, N-4-[1-(N'-benzyl-5-thiazolmethylaminosulfamoyl)-3-(2-methylphenyl)-1,2,5,6-tetrahydroisonicotinyl]methionine] | 90% | 
2 | CSCC[C@H](NC(=O)C1=C(c2ccccc2C)CN(CCCc2ccccc2)CC1)C(=O)O [Example 4, N-[N'-(3-phenylpropyl)-3-(2-methylphenyl)-1,2,5,6-tetrahydroisonicotinyl]methionine] |  | 55%
3 | CSCC[C@H](NC(=O)C1=C(c2ccccc2C)CN(C(=O)Cc2cccnc2)CC1)C(=O)O [Example 5, N-[N'-(3-pyridylacetyl)-3-(2-methylphenyl)-1,2,5,6-tetrahydroisonicotinyl]methionine] | 94% | 
4 | CSCC[C@H](NC(=O)C1=C(c2ccccc2C)CN(C(=O)N(Cc2ccccc2)Cc2cncs2)CC1)C(=O)O [Example 3, N-4-[1-(N'-benzyl-5-thiazolmethylaminocarbonyl)-3-(2-methylphenyl)-1,2,5,6-tetrahydroisonicotinyl]methionine] |  | 100%
5 | CSCC[C@H](NC(=O)C1=C(c2ccccc2C)CN(C(=O)OCCCC2CCCCC2)CC1)C(=O)O [Example 1, N-4-[1-(3-cyclohexylpropyloxycarbonyl)-3-(2-methylphenyl)-1,2,5,6-tetrahydroisonicotinyl]methionine] |  | 100%
6 | CSCC[C@H](NC(=O)C1=C(c2ccccc2C)CN(C(=O)C=Cc2cncs2)CC1)C(=O)O [Example 2, N-4-[1-(3-[5-thiazolyl]acryloyl)-3-(2-methylphenyl)-1,2,5,6-tetrahydroisonicotinyl]methionine] |  | 43%
